Laboratory results published in patent US20230338574A1, “ANTIBODY-NANOPARTICLE COMPLEXES AND METHODS FOR MAKING AND USING THE SAME” (priority 2020, published 2023).

What was measured:
[1] = test system: MDA-MB-231 tumor xenograft; test: In vivo efficacy in MDA-MB-231 tumor xenograft; design: species or system female athymic nude mice; settings: Kaplan Meier
Description: Female athymic nude mice, 6 weeks of age, were purchased from Envigo Corporation.
Human breast cancer cell lines MDA-MB-231 were purchased from ATCC and were cultured and expanded in DMEM medium supplemented with 10% FBS, 100 units/ml of penicillin and 100 μg/ml of streptomycin at 37° C. in a 5% CO2 humidified environment for a period of 2-3 weeks before harvesting for implantation. Cell viability determined by Trypan blue dye exclusion assay was >90% before implantation. 4 million MDA-MB-231 cells in 100 μl of PBS were inoculated to the right upper flank of each mouse by s.c. injection.
Tumor volume measurement was started at day 25 after tumor cell inoculation and performed twice weekly. The longest longitudinal diameter as length and the widest transverse diameter as width were measured by using a digital caliper. Tumor volume (TV) was then calculated by the formula: TV=[length×(width)^2]/2 and were analyzed in Excel.
The treatment was started when average tumor size reached ˜400 mm^3.
Mice were euthanized when tumor size reached 2000 mm^3.
After tumor-bearing mice were randomized, 0.9% saline, anti-PDL1, Irinotecan 15, albumin bound non-toxic paclitaxel (NTP), free SN-38 at 7.5 and 15 mg/kg (SN38 7.5 and 15), albumin bound SN-38 at 7.5 and 15 mg/kg (Nab 7.5 and 15), anti-PDL1 plus SN38 Nab delivered at the same time in separate injections (PDL1+Nab15), or anti-PDL1 coated albumin bound SN-38 at 7.5 and 15 mg/kg (NIC 7.5 and NIC 15) were administered. Albumin bound SN-38 (Nab) and anti-PDL1 coated SN-38 Nab (NIC) were made as described above. Drugs were diluted in 0.9% saline and administered to the athymic nude mice in 100 μl by IV injections in the tail vein. SN-38 in all forms was given at 7.5 and 15 mg/kg in a single dose.
Raw data of tumor measurements (FIG. 7A-FIG. 7K) were analyzed in Excel. Tumor growth curves, day 7 tumor response and Kaplan-Meier survival curves were plotted using GraphPad Prism 8.0 software. Data from day 7 tumor response were compared using student's t-test. P values of less than 0.05 were considered significant (FIG. 8).
In MDA-MB-231 tumor xenograft model tumor responses were determined at day 7 using the equation: {([…])/tumor size day 0}*100. Differences in tumor response were determined by student's t-test in GraphPad Prism software 8.0. Percent change above the zero line indicates tumor growth, and below the zero line indicates tumor shrinking. […]
Kaplan Meier curves for the MDA-MB-231 xenotransplant model were generated in GraphPad Prism software 8.0 and median survival was determined to be 28, 34, 30, 24.5, 30, and 42.5 for the saline, anti-PDL1, Irinotecan 15, NTP, free SN38 7.5, and free SN38 15, respectively. […]

[2] = target: nab-paclitaxel (Taxol) nanoparticles with SN38 (human) (UniProt P02768); test: zeta potential (Zetasizer), nanoparticles with 2, 4, 6 or 8 mg/ml antibody
[3] = target: T1, SN38:NTP Nab (albumin nanoparticles made with non-toxic paclitaxel derivative and SN38) (human, UniProt P02768 25-609); test: zeta potential (Zetasizer), SN38:NTP:STI3031 NIC against SN38:NTP Nab
T1 construct: also called SN38 Nab

CCc1c2c(nc3ccc(OC(=O)N4CCC(N5CCCCC5)CC4)cc13)-c1cc3c(c(=O)n1C2)COC(=O)[C@]3(O)CC [Irinotecan, irinotecan] was tested. Which median survival ([1]; 15 mg/kg, IV) did it give?
Its median survival is 30.

CCc1c2c(nc3ccc(O)cc13)-c1cc3c(c(=O)n1C2)COC(=O)[C@]3(O)CC [SN38] was tested. Which median survival ([1]; 7.5 mg/kg, single IV dose) did it give?
The median survival was 30.

What about the median survival ([1]; 15 mg/kg, IV) of the same molecule?
The median survival was 42.5.

How did the median survival ([1]; IV injection, dose not given) turn out when “anti-PDL1: anti-PDL1 H6B1L-EM antibody (STI3031), HC/LC SEQ ID NO. 1/SEQ ID NO. 2” was run?
The median survival was 34.

B1: anti-PDL1 H6B1L-EM antibody (STI3031) (antibody, human IgG1, lambda, V domains shown)
VH: QMQLVQSGAEVKKPGSSVKVSCKASGGTFSSYAYSWVRQAPGQGLEWMGGIIPSFGTANYAQKFQGRVTITADESTSTAYMELSSLRSEDTAVYYCARGPIVATITPLDYWGQGTLVTVSS
VL: SYVLTQPPSVSVAPGKTATIACGGENIGRKTVHWYQQKPGQAPVLVIYYDSDRPSGIPERFSGSNSGNTATLTISRVEAGDEADYYCLVWDSSSDHRIFGGGTKLTVLG
notes: also called PDL1 antibody
What does the source list for B1?
antibody concentration at which zeta potential reaches its maximum [2]: 4 mg/mL; binding result [3]: binds
